In PubChem BioAssay (NCI):
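The compound was tested at five concentrations on cells cultured in 96-well plates, with a 48-hour exposure period. TGI marks complete inhibition of growth.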

Assays:
Assay in all cases: NCI anticancer screen, dose series, 48 h
A498 renal = system: A498 renal
BT-549 breast = system: BT-549 breast
DU-145 prostate = system: DU-145 prostate
HCT-15 colon = system: HCT-15 colon
LOX IMVI melanoma = system: LOX IMVI melanoma
MDA-N = system: MDA-N
MOLT-4 leukemia = system: MOLT-4 leukemia
OVCAR-4 ovarian = system: OVCAR-4 ovarian
OVCAR-5 ovarian = system: OVCAR-5 ovarian
OVCAR-8 ovarian = system: OVCAR-8 ovarian
PC-3 prostate = system: PC-3 prostate
RPMI-8226 leukemia = system: RPMI-8226 leukemia
SF-268 CNS = system: SF-268 CNS
SK-OV-3 ovarian = system: SK-OV-3 ovarian
SN12C renal = system: SN12C renal
SW-620 colon = system: SW-620 colon
UACC-257 melanoma = system: UACC-257 melanoma
RXF 393 renal = system: RXF 393 renal

Row | Structure (SMILES) | TGI (A498 renal) [µM] | TGI (BT-549 breast) [µM] | TGI (DU-145 prostate) [µM] | TGI (HCT-15 colon) [µM] | TGI (LOX IMVI melanoma) [µM] | TGI (MDA-N) [µM] | TGI (MOLT-4 leukemia) [µM] | TGI (OVCAR-4 ovarian) [µM] | TGI (OVCAR-5 ovarian) [µM] | TGI (OVCAR-8 ovarian) [µM] | TGI (PC-3 prostate) [µM] | TGI (RPMI-8226 leukemia) [µM] | TGI (SF-268 CNS) [µM] | TGI (SK-OV-3 ovarian) [µM] | TGI (SN12C renal) [µM] | TGI (SW-620 colon) [µM] | TGI (UACC-257 melanoma) [µM] | TGI (RXF 393 renal) [µM]
1 | Cc1ccc(CC2(C(=O)O)Cc3ccc(C)cc3C2)cc1 (centres undefined) | > 100 | > 100 | > 100 | > 100 | > 100 | > 100 | > 100 | > 100 | > 100 | > 100 | > 100 | > 100 | > 100 | > 100 | > 100 | > 100 | > 100 | –
2 | CC(/C=C/C(=O)NO)=C\C(C)C(=O)c1ccc(N(C)C)cc1 (centres undefined) | 0.257 | > 60.4 | 0.0792 | 21.4 | – | 11.5 | – | 16.8 | 4.6 | 41.6 | 10.7 | 74.1 | 0.195 | 0.224 | 0.206 | 29.8 | 0.387 | 0.104
3 | O=c1c2cc(-c3ccccc3)cnc2sn1-c1ccc(Br)cc1 | > 100 | > 100 | > 100 | > 100 | – | > 100 | > 100 | > 100 | > 100 | > 100 | > 100 | > 100 | > 100 | > 100 | > 100 | > 100 | > 100 | > 100
4 | Cc1ccc(O)c(C(c2cccc(C(c3cc(C)ccc3O)c3cc(C)ccc3O)c2)c2cc(C)ccc2O)c1 | 2.97 | 4.11 | 2.84 | 3.31 | – | 3.35 | 18.8 | 3.73 | 3.15 | 3.87 | 3.29 | 3.31 | 3.33 | 3.42 | 3.4 | 3.2 | 3.86 | 3.2
5 | Cc1ccc2c(=O)cc(-c3sccc3C)[nH]c2n1 | > 35 | > 100 | > 67.3 | > 40.6 | > 38.1 | 0.359 | > 27.8 | > 100 | > 100 | > 31.8 | > 28 | – | > 56.4 | > 100 | > 47.2 | – | – | > 20.1
6 | CCCCN1C(=O)C2Cc3c([nH]c4ccccc34)C(c3cccc(O)c3)N2C1=O (centres undefined) | 32.8 | 34.2 | 33.1 | 37.2 | 32.2 | 36.3 | 69.6 | 34.6 | 33 | 33.2 | 32.8 | 51.2 | 34.7 | 30 | 32.5 | 38.7 | 33.9 | –
7 | CC(=O)OC[C@H]1CN(OC(C)=O)C[C@@H](n2cc(C)c(=O)[nH]c2=O)O1 | > 100 | > 100 | > 100 | > 100 | – | > 100 | > 100 | > 100 | > 100 | > 100 | > 100 | > 100 | > 100 | > 100 | > 100 | > 100 | > 100 | > 100
8 | CCn1cc2c(=O)n3ncn(-c4ccc(Br)cc4)c3nc2n1 | > 100 | > 100 | > 100 | > 100 | – | > 100 | > 100 | > 100 | > 100 | > 100 | > 100 | > 100 | > 100 | > 100 | > 100 | > 100 | > 100 | > 100
9 | CO/C=C/C=C(\C#N)C(=O)OC | > 100 | > 100 | > 100 | > 100 | > 100 | > 100 | > 100 | > 100 | > 100 | > 100 | > 100 | > 100 | > 100 | > 100 | > 100 | > 100 | > 100 | –
10 | CC(C)[N+]([O-])(CCCNc1c2ccccc2nc2cccc([N+](=O)[O-])c12)C(C)C | 0.289 | 0.221 | 0.133 | 1.58 | 0.427 | 0.137 | – | 0.433 | 1.31 | 0.628 | 11.5 | 0.0875 | 3.14 | 2.08 | 0.862 | 4.9 | 0.333 | 0.403
11 | COc1ccc(S(=O)(=O)N2C(=O)CCC2C(=O)NC(N)=O)cc1 (centres undefined) | > 100 | > 100 | > 100 | > 100 | > 100 | > 100 | > 100 | > 100 | > 100 | > 100 | > 100 | > 100 | – | > 100 | > 100 | > 100 | > 100 | –
12 | CCOC1OC(COC(=O)C(C)(C)C)C(O)CC1n1cc(C)c(=O)[nH]c1=O (centres undefined) | > 100 | > 100 | > 100 | > 100 | > 100 | > 100 | – | > 100 | > 100 | > 100 | > 100 | > 100 | > 100 | – | > 100 | > 100 | > 100 | > 100
